Experiment [1] in a line: Apoptogenic activity against Molt cells after 24 hr treatment at concentration 30 uM. Conditions: Homo sapiens. Type of experiment: functional, cell-based.
A short description of experiment [2]: Apoptogenic activity against K-422 cells after 24 hr treatment at concentration 30 uM. Type of experiment: functional, cell-based. Conditions: Homo sapiens.
The species named for the next experiment is Homo sapiens. Kind of experiment: Apoptogenic activity against peripheral blood lymphocytes after 24 hr treatment at concentration 30 uM. In kind it is functional.
Experiment [3] can be described thus: Aoptogenic activity against Molt cells after 24 hr treatment at concentration 30 uM. Conditions: Homo sapiens. Type of experiment: functional, cell-based.

SMILES strings stand for the structures.

Regarding `CCCCCCCCC[C@H](O)[C@H](CO)NC(=O)CCCCC`, the Cells in experiment [1] stood at 9%; in experiment [2], 15%; in the experiment filed under Homo sapiens, 57%.
Taken in the same sequence, the figures for `CCCCCCC/C=C/[C@H](O)[C@H](CO)NC(=O)CCCCC` were 1%, 32.7% and 33.5%.
In the case of `CCCCCCCCC[C@H](F)[C@H](CO)NC(=O)CCCCC`, the Cells in experiment [1] is 31.6%; in experiment [2], 32%; in the experiment listed under Homo sapiens it was 46%.
Taken in the same sequence, the figures for `CCCCCCC/C=C/[C@@H](F)[C@H](CO)NC(=O)CCCCC` were 11%, 34.7% and 40%.
Taken in the same sequence, the figures for `CCCCCCCCCCCCC/C=C/[C@@H](O)[C@H](CO)NC(C)=O` were 51%, 27.7% and 48.8%.
The like results for `CCCCCC(=O)N[C@@H](CO)[C@@H](F)CCc1ccccc1` were, in that order, 2%, 2.5% and 0.5%.
For the molecule `CCCCCCC/C=C/[C@@H](O)[C@H](CO)NC(=O)CCCCC`, the Cells in experiment [1] worked out at 3.5%; in experiment [2] it was 12.7%; in the experiment listed under Homo sapiens it was 12%.
As to `CCCCCCC/C=C/[C@H](F)[C@H](CO)NC(=O)CCCCC`, the Cells came out at 13.7% in experiment [1], 51.2% in experiment [2] and 47.7% in the experiment listed under Homo sapiens.
Consider `CCCCCCCCC[C@H](F)[C@H](CO)NC(C)=O`, for which the Cells in experiment [3] was found to be 3%; in experiment [2] it was 7.3%; in the experiment listed under Homo sapiens, 3%.

The values are drawn from ChEMBL document CHEMBL1131874, “Synthesis and apoptogenic activity of fluorinated ceramide and dihydroceramide analogues” (1999).
